This assay has as its system Plasmodium berghei. The assay is described as follows: Luciferase/luciferin-expressing antifolate-resistant parasites were used to infect a culture of HepG2 cells that were pre-incubated with compounds. Infected hepatocytes emit light due to the luciferase reaction. Assay results are presented as the percent inhibition of light emission compared to control. […]. It is filed as functional. The settings on record: sporozoite; for IC90: read-out: LUCIFERASE INFECTION ASSAY - IC90.

Setting [1] is: read-out: LUCIFERASE INFECTION ASSAY - IC50.

Regarding `O=C(NC1CC1)c1ccc(-c2cnc3c(NCC4CC4)nccn23)cc1`, the IC90 (commonly the concentration at which the effect reaches the 90% level) was found to be 6.12 µM. Further, the IC50 (usually the concentration at which inhibition is half-maximal) (HEPG2TOX_HILL_SLOPE 1.1, HEPG2TOX_R_SQUARED 0.94, PBLUC_HILL_SLOPE 4.24, PBLUC_R_SQUARED 0.447, read-out: LUCIFERASE INFECTION ASSAY - IC50) is 3.65 µM.
With `Cc1cc(Cl)ccc1NC(N)=NN`, the IC90 is more than 10.1 µM. Further, the IC50 under setting [1] was more than 10.1 µM.
As for `CCCCOCCCNC(=O)c1cc2ccccc2cc1OC`, the IC90 was more than 10 µM. The IC50 (PBLUC_HILL_SLOPE 2.53, PBLUC_R_SQUARED 0.451, read-out: LUCIFERASE INFECTION ASSAY - IC50) was 6.56 µM.
Consider `O=C(Nc1cccc(S(=O)(=O)NC2=NCCC2)c1)c1ccc2nccnc2c1`, for which the concentration for an effect of 90% (IC90) was more than 10 µM. Besides, under setting [1], the IC50 was more than 10 µM.
Turning to `CCCCCc1ccc(-c2nnc(SCC(=O)c3ccccc3)[nH]2)cc1`, the IC90 was more than 9.03 µM. Also, the half-maximal inhibitory concentration (IC50) (PBLUC_HILL_SLOPE 2.65, PBLUC_R_SQUARED 0.501, read-out: LUCIFERASE INFECTION ASSAY - IC50) was more than 9.03 µM.
With `COc1cc(NC(=S)Nc2cccc(OC(F)(F)F)c2)cc(C(F)(F)F)c1`, the IC90 was more than 8.04 µM. Moreover, under “PBLUC_HILL_SLOPE 0.721, PBLUC_R_SQUARED 0.563, read-out: LUCIFERASE INFECTION ASSAY - IC50”, the half-inhibitory concentration (IC50) came to 2.34 µM.
`COc1cccc(Nc2nccc3nc(-c4cccc(C(F)(F)F)c4)[nH]c23)c1`: the 90% effect concentration (IC90) was more than 10 µM. In addition, the half-maximal inhibitory concentration (IC50) (PBLUC_HILL_SLOPE 2.33, PBLUC_R_SQUARED 0.497, read-out: LUCIFERASE INFECTION ASSAY - IC50) was 4.16 µM.
Take `CC(C)n1c(Sc2ncc([N+](=O)[O-])s2)nc2ccccc21`: the IC90 came to 4.36 µM. Also, the 50% inhibitory concentration (IC50) (FFLUC_HILL_SLOPE 5.73, FFLUC_R_SQUARED 0.583, HEPG2TOX_HILL_SLOPE 3.25, HEPG2TOX_R_SQUARED 0.992, PBLUC_HILL_SLOPE 9.74, PBLUC_R_SQUARED 0.283, read-out: LUCIFERASE INFECTION ASSAY - IC50) was found to be 3.48 µM.
On to `O=C(CCSCc1cc(Cl)c2c(c1)OCO2)Nc1ccc(Cl)cc1F`, for which the IC90 is more than 10 µM. Under setting [1], the concentration for half-maximal inhibition (IC50) is more than 10 µM.
For the molecule `CCN(CC)S(=O)(=O)c1ccc(C)c(NC(=O)CN(Cc2c(F)cccc2Cl)C2CC2)c1`, the 90% effect concentration (IC90) is more than 10 µM. Further, the half-maximal inhibitory concentration (IC50) under setting [1] is more than 10 µM.
With `CN(C)c1ccc(CNCCC(c2ccc(F)cc2)c2ccco2)cc1` (configuration not stated), the IC90 is 1.83 µM. Besides, the IC50 (HEPG2TOX_HILL_SLOPE 13.3, HEPG2TOX_R_SQUARED 0.508, PBLUC_HILL_SLOPE 4.7, PBLUC_R_SQUARED 0.649, read-out: LUCIFERASE INFECTION ASSAY - IC50) came out at 1.15 µM.
On to `COC(=O)c1ccc(/C=C/C(=O)c2ccccc2F)cc1`, for which the IC90 is more than 10 µM. Under “HEPG2TOX_HILL_SLOPE 28.5, HEPG2TOX_R_SQUARED 0.619, read-out: LUCIFERASE INFECTION ASSAY - IC50”, the 50% inhibitory concentration (IC50) was more than 10 µM.
As to `CCn1c(-c2ccccc2)c(C(=O)COC(=O)c2c(NC(C)=O)sc3c2CCCC3)c2ccccc21`, the concentration for an effect of 90% (IC90) is more than 10 µM. Also, the 50% inhibitory concentration (IC50) under setting [1] was more than 10 µM.
For the molecule `c1csc(-c2cnc3ccc(-c4cccc5ncccc45)nn23)c1`, the IC90 was 5.26 µM. For the same molecule, where the note is “HEPG2TOX_HILL_SLOPE 3.19, HEPG2TOX_R_SQUARED 0.792, PBLUC_HILL_SLOPE 2.95, PBLUC_R_SQUARED 0.78, read-out: LUCIFERASE INFECTION ASSAY - IC50”, the 50% inhibitory concentration (IC50) came to 2.49 µM.
As to `Cc1ccc(C(=O)Nc2cccc(CNC(C)c3ccc(F)cc3F)c2)cc1` (configuration not stated), the IC90 was more than 10 µM. In addition, under setting [1], the half-inhibitory concentration (IC50) was more than 10 µM.
In the case of `COc1ccc(NCC2(c3ccnc(-c4ccccc4Cl)c3)CC2)cc1OC`, the concentration for an effect of 90% (IC90) stood at 9.12 µM. For the same molecule, the concentration for half-maximal inhibition (IC50) (HEPG2TOX_HILL_SLOPE 3.27, HEPG2TOX_R_SQUARED 0.816, PBLUC_HILL_SLOPE 4.33, PBLUC_R_SQUARED 0.443, read-out: LUCIFERASE INFECTION ASSAY - IC50) is 5.49 µM.
For `COc1cccc(CN2CCc3c(c(C(=O)NCCCc4ccccc4)nn3Cc3ccncc3)C2)c1`, the IC90 is 5.47 µM. Moreover, the IC50 (PBLUC_HILL_SLOPE 4.39, PBLUC_R_SQUARED 0.179, read-out: LUCIFERASE INFECTION ASSAY - IC50) was 3.31 µM.
As for `COc1ccc(N2C(=O)C(=O)N(Cc3c(C)cc(C(C)(C)C)cc3C)C2=O)cc1`, the concentration for an effect of 90% (IC90) was found to be 7.85 µM. For the same molecule, the IC50 (HEPG2TOX_HILL_SLOPE 7.7, HEPG2TOX_R_SQUARED 0.735, PBLUC_HILL_SLOPE 4.71, PBLUC_R_SQUARED 0.498, read-out: LUCIFERASE INFECTION ASSAY - IC50) was determined as 4.92 µM.
For the molecule `CSc1ccc(OC(=O)Nc2ccccc2)cc1`, the IC90 was more than 12.7 µM. Besides, under setting [1], the concentration for half-maximal inhibition (IC50) was more than 12.7 µM.
For `Cc1ccc2[nH]c(=S)n(-c3cc(Cl)ccc3C)c(=O)c2c1`, the IC90 was more than 10.4 µM. Also, the IC50 (PBLUC_HILL_SLOPE 1.97, PBLUC_R_SQUARED 0.142, read-out: LUCIFERASE INFECTION ASSAY - IC50) was found to be 9.2 µM.
Consider `O=C(c1ccc2nc[nH]c2c1)N1CCc2nc(NCc3cccc(Oc4ccccc4)c3)ncc2C1`, for which the IC90 was more than 6.92 µM. Further, for the setting “HEPG2TOX_HILL_SLOPE 1.36, HEPG2TOX_R_SQUARED 0.938, PBLUC_HILL_SLOPE 1.78, PBLUC_R_SQUARED 0.322, read-out: LUCIFERASE INFECTION ASSAY - IC50”, the 50% inhibitory concentration (IC50) came out at 2.4 µM.
Turning to `O=C(Nc1ccccc1O)c1ccccc1NS(=O)(=O)c1ccc(Cl)s1`, the IC90 came out at 7.2 µM. The concentration for half-maximal inhibition (IC50) (HEPG2TOX_HILL_SLOPE 3.8, HEPG2TOX_R_SQUARED 0.66, PBLUC_HILL_SLOPE 5.25, PBLUC_R_SQUARED 0.554, read-out: LUCIFERASE INFECTION ASSAY - IC50) came out at 4.74 µM.
For `CN(CCC#N)C(=S)NCCc1ccccc1`, the IC90 was more than 10 µM. Further, under setting [1], the half-maximal inhibitory concentration (IC50) is more than 10 µM.
`S=c1sc(Nc2ccc(Oc3ccccc3)cc2)nn1CN1CCN(c2ncccn2)CC1`: the 90% effect concentration (IC90) is more than 10 µM. Also, the IC50 (PBLUC_HILL_SLOPE 0.972, PBLUC_R_SQUARED 0.697, read-out: LUCIFERASE INFECTION ASSAY - IC50) turned out to be 3.61 µM.
As to `C#CCSc1nnc(-c2ccc(C(C)(C)C)cc2)n1-c1ccc(C(C)C)cc1`, the IC90 is more than 8.47 µM. For the same molecule, the IC50 (PBLUC_HILL_SLOPE 0.5, PBLUC_R_SQUARED 0.648, read-out: LUCIFERASE INFECTION ASSAY - IC50) was more than 8.47 µM.
As to `COc1ccc(NC(=O)Nc2ccc3nc(-c4ccccc4OC)nn3c2)cc1OC`, the IC90 was more than 10 µM. Moreover, under setting [1], the half-inhibitory concentration (IC50) was more than 10 µM.
As for `O=C(COC(=O)CNS(=O)(=O)/C=C/c1ccccc1)NC1CCCCC1`, the concentration for an effect of 90% (IC90) was more than 10 µM. For the same molecule, under setting [1], the concentration for half-maximal inhibition (IC50) is more than 10 µM.
For the molecule `COc1ccc(Cn2c(C3CC(=O)N(C)C3)nc3ccccc32)cc1` (configuration not stated), the IC90 is more than 9.84 µM. The IC50 (PBLUC_HILL_SLOPE 3.53, PBLUC_R_SQUARED 0.0667, read-out: LUCIFERASE INFECTION ASSAY - IC50) was found to be 8.05 µM.
With `Cc1c(C(=O)OCc2ccc(C(C)C)cc2)sc2nc3n(c(=O)c12)CCC3`, the IC90 was more than 10 µM. The IC50 (PBLUC_HILL_SLOPE 5.57, PBLUC_R_SQUARED 0.253, read-out: LUCIFERASE INFECTION ASSAY - IC50) amounted to 6.97 µM.
Take `Oc1cccnc1NC(c1ccccc1F)c1ccc2cccnc2c1O` (configuration not stated): the 90% effect concentration (IC90) stood at 9.5 µM. The IC50 (FFLUC_HILL_SLOPE 2.5, FFLUC_R_SQUARED 0.451, HEPG2TOX_HILL_SLOPE 1.9, HEPG2TOX_R_SQUARED 0.963, PBLUC_HILL_SLOPE 13, PBLUC_R_SQUARED 0.418, read-out: LUCIFERASE INFECTION ASSAY - IC50) was determined as 8.03 µM.
Consider `COc1nc(-c2ccccc2)cc(-c2ccc3c(c2)OCO3)c1C#N`, for which the 90% effect concentration (IC90) was determined as 5.77 µM. Further, where the note is “HEPG2TOX_HILL_SLOPE 1.05, HEPG2TOX_R_SQUARED 0.733, PBLUC_HILL_SLOPE 1.42, PBLUC_R_SQUARED 0.508, read-out: LUCIFERASE INFECTION ASSAY - IC50”, the half-maximal inhibitory concentration (IC50) amounted to 1.23 µM.
Consider `COc1ccc(-c2nnc(SCC(=O)c3[nH]c(C)c(C(C)=O)c3C)n2C2CCCCC2C)cc1` (configuration not stated), for which the IC90 was more than 10 µM. Under setting [1], the 50% inhibitory concentration (IC50) is more than 10 µM.
For `CC1Cc2cc(S(N)(=O)=O)ccc2N1C(=O)CN1CCCN(c2ccc(C(F)(F)F)cn2)CC1` (configuration not stated), the concentration for an effect of 90% (IC90) was more than 10 µM. Besides, the concentration for half-maximal inhibition (IC50) (HEPG2TOX_HILL_SLOPE 3.49, HEPG2TOX_R_SQUARED 0.873, read-out: LUCIFERASE INFECTION ASSAY - IC50) is more than 10 µM.
With `CCCN1CCc2nc(Nc3ccc(OCc4ccccc4)cc3)ncc2C1`, the IC90 was more than 8.81 µM. Besides, the IC50 under setting [1] was more than 8.81 µM.
Consider `CCOC(=O)c1cnn(-c2ccc(NC(=O)COc3ccccc3C#N)cc2)c1C(F)(F)F`, for which the IC90 is more than 10 µM. Under setting [1], the half-inhibitory concentration (IC50) was more than 10 µM.
On to `O=C(Nc1cc(Cl)cc(Cl)c1)c1ccccc1O`, for which the IC90 is 4.44 µM. Moreover, the half-maximal inhibitory concentration (IC50) under setting [1] was found to be 3.79 µM.
Taken in the same sequence, the figures for `Cc1cc(-c2cc(C(=O)NCc3ccc(Cn4cncn4)cc3)c3cnn(C(C)C)c3n2)c(C)s1` were more than 10 µM and more than 10 µM.
Consider `N#CN=c1nc(/C=C/c2ccc(Br)cc2)[nH]c(-c2ccccc2O)n1`, for which the IC90 came to 5.46 µM. Further, the half-inhibitory concentration (IC50) (FFLUC_HILL_SLOPE 1.52, FFLUC_R_SQUARED 0.887, PBLUC_HILL_SLOPE 1.8, PBLUC_R_SQUARED 0.711, read-out: LUCIFERASE INFECTION ASSAY - IC50) turned out to be 1.61 µM.
As to `COc1ccc2c(c1)CC/C(=C\c1ccc(C(C)C)cc1)C2=O`, the IC90 was more than 10.8 µM. The 50% inhibitory concentration (IC50) under setting [1] was more than 10.8 µM.
On to `COc1ccc(-c2ccc3nnc(-c4ccccc4)n3c2)cc1`, for which the IC90 amounted to 5.12 µM. Also, under “HEPG2TOX_HILL_SLOPE 1.32, HEPG2TOX_R_SQUARED 0.91, PBLUC_HILL_SLOPE 2.27, PBLUC_R_SQUARED 0.548, read-out: LUCIFERASE INFECTION ASSAY - IC50”, the IC50 turned out to be 1.94 µM.
As to `CNc1snc(C)c1C(=O)NCC(C(C)C)N1CCc2ccccc2C1` (configuration not stated), the 90% effect concentration (IC90) was more than 10 µM. Also, the concentration for half-maximal inhibition (IC50) under setting [1] was more than 10 µM.

For the origin of these results see ChEMBL document CHEMBL4483862, “Open-source discovery of chemical leads for next-generation chemoprotective antimalarials” (2018).
